# Assays:
# CDK4/cyclin D3 = target: T1, CDK4/cyclin D3 (Homo sapiens, UniProt P11802); test: Human CDK4/cyclin D3 inhibitory activity (QS S Assist CDK4/Cyclin D3_FP Kit, IMAP fluorescence polarization); assay type: biochemical; conditions: 50% inhibitory concentration against CDK4/cyclin D3, given as class symbol
# T1 construct: purchased Carna Biosciences, Inc. QS S Assist CDK4/Cyclin D3_FP Kit
# In short: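 Percent inhibition, relative to DMSO with and without enzyme, was curve-fitted to give IC50 from polarization (ex 485, em 535 nm). The 45-min room-temperature reaction used 12.5-25 ng/well enzyme, kit ATP/substrate/metal mix, and HEPES pH 7.4 buffer with Tween20 and DTT, followed by 30-min IMAP binding in the dark.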
# CDK2/cyclin A2 = target: T2, CDK2/cyclin A2 (Homo sapiens, UniProt P24941); test: Human CDK2/cyclin A2 inhibitory activity (QS S Assist CDK2/Cyclin A2_FP Kit, IMAP fluorescence polarization); assay type: biochemical; conditions: 50% inhibitory concentration against CDK2/cyclin A2, given as class symbol
# T2 construct: purchased Carna Biosciences, Inc. QS S Assist CDK2/Cyclin A2_FP Kit
# In short: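 Kinase activity read as fluorescence polarization (485/535 nm) after phosphorylated fluorescent substrate binds IMAP reagent (30 min, RT, dark). Enzyme (2.5 ng/well) reacted 60 min at RT with ATP/substrate/metal in HEPES pH 7.4 buffer with Tween 20 and DTT; no-enzyme wells define 0% activity; IC50 by curve fit.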
# T1 sequence (P11802 whole entry): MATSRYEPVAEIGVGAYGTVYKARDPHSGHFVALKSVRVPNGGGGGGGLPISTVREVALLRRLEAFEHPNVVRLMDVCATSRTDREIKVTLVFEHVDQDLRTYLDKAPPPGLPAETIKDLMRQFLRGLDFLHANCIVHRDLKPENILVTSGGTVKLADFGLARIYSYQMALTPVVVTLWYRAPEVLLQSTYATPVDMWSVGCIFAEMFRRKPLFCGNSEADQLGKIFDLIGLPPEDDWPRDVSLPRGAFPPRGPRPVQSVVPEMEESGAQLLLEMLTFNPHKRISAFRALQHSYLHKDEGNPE
# T1 sequence (P30281 whole entry partner): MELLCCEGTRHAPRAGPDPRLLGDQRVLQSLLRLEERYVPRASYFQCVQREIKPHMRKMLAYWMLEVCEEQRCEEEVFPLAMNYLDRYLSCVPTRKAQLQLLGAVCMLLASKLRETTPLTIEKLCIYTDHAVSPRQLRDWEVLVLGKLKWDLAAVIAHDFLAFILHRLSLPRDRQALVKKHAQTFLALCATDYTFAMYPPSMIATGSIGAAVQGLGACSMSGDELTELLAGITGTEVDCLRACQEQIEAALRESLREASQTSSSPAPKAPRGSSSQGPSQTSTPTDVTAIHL
IC50 (CDK4/cyclin D3) [nM],IC50 (CDK2/cyclin A2) [nM],SMILES
< 10,≥ 100,CC(C)Nc1nc(C2(C)COC2)cc2cnc(Nc3ccc(N4CCNCC4)cn3)nc12 [Compound 1006]
< 10,≥ 100,CC(C)Nc1nc(C2CCOC2)cc2cnc(Nc3ccc(N4CCNCC4)cn3)nc12 (stereo not shown) [Compound 1007]
< 10,≥ 100,CCCNc1nc([C@@H](C)OC)cc2cnc(Nc3ccc(N4CC5(CC(NC)C5)C4)cn3)nc12 [Compound 1008]
< 10,≥ 100,CNC1CC2(C1)CN(c1ccc(Nc3ncc4cc([C@@H](C)OC)nc(N[C@H]5CCCOC5)c4n3)nc1)C2 [Compound 1009]
< 10,≥ 100,CC(C)Nc1nc(C2CCOC2)cc2cnc(Nc3ccc(CN4CCN(CCO)CC4)cn3)nc12 (stereo not shown) [Compound 1010]
< 10,≥ 100,OCCN1CCN(Cc2ccc(Nc3ncc4cc(C5CCOC5)nc(N[C@H]5CCCOC5)c4n3)nc2)CC1 (stereo partly shown) [Compound 1011]
< 10,≥ 100,CC(C)Nc1nc(C2CCOC2)cc2cnc(Nc3ccc(CN4CCN(CC#N)CC4)cn3)nc12 (stereo not shown) [Compound 1012]
< 10,≥ 100,N#CCN1CCN(Cc2ccc(Nc3ncc4cc(C5CCOC5)nc(N[C@H]5CCCOC5)c4n3)nc2)CC1 (stereo partly shown) [Compound 1013]
< 10,≥ 100,CC(C)Nc1nc(C2CCOC2)cc2cnc(Nc3ccc(CN4CCN(CC#N)CC4)cn3)nc12 (stereo not shown) [Compound 1014]
< 10,≥ 100,CC(C)Nc1nc([C@@H](C)O)cc2cnc(Nc3ccc(CN4CCN(CC#N)CC4)cn3)nc12 [Compound 1015]
< 10,≥ 100,CC(C)Nc1nc([C@@H](C)O)cc2cnc(Nc3ccc(CN4CCC(CO)CC4)cn3)nc12 [Compound 1016]
< 10,≥ 100,CNC(=O)CN1CCN(Cc2ccc(Nc3ncc4cc([C@@H](C)O)nc(NC(C)C)c4n3)nc2)CC1 [Compound 1017]
< 10,≥ 100,CC(C)Nc1nc([C@@H](C)O)cc2cnc(Nc3ccc(CN4CCN(CC(=O)N(C)C)CC4)cn3)nc12 [Compound 1018]
< 10,≥ 100,CC(C)Nc1nc([C@@H](C)O)cc2cnc(Nc3ccc(CN4CCC(O)CC4)cn3)nc12 [Compound 1019]
< 10,≥ 100,C[C@@H](O)c1cc2cnc(Nc3ccc(CN4CCC(O)CC4)cn3)nc2c(NC(C)(C)C)n1 [Compound 1020]
< 10,≥ 100,C[C@@H](O)c1cc2cnc(Nc3ccc(CN4CCC(CO)CC4)cn3)nc2c(NC(C)(C)C)n1 [Compound 1021]
< 10,≥ 100,CCCNc1nc([C@@H](C)O)cc2cnc(Nc3ccc(CN4CCC(O)CC4)cn3)nc12 [Compound 1022]
< 10,≥ 100,CC(C)CNc1nc([C@@H](C)O)cc2cnc(Nc3ccc(CN4CCC(O)CC4)cn3)nc12 [Compound 1023]
< 10,≥ 100,CC(C)CNc1nc([C@@H](C)O)cc2cnc(Nc3ccc(CN4CCC(CO)CC4)cn3)nc12 [Compound 1024]
< 10,≥ 100,CC(=O)c1cc2cnc(Nc3ccc4c(n3)CCNC4)nc2c(NC(C)C)n1 [Compound 1027]

IC50 (CDK4/cyclin D3) [nM],IC50 (CDK2/cyclin A2) [nM],SMILES
10 to 100,≥ 100,CCCNc1nc(C(C)=O)cc2cnc(Nc3ccc(N4CCNCC4)cn3)nc12 [Compound 1028]
< 10,≥ 100,CC(=O)c1cc2cnc(Nc3ccc(N4CCNCCC4=O)cn3)nc2c(NC(C)C)n1 [Compound 1029]
10 to 100,≥ 100,CCC(=O)c1cc2cnc(Nc3ccc(N4CCNCC4=O)cn3)nc2c(NC(C)C)n1 [Compound 1030]
< 10,≥ 100,CC(=O)c1nc(NC(C)C)c2nc(Nc3ccc(N4CCNCC4=O)cn3)ncc2c1Cl [Compound 1031]
< 10,≥ 100,CC(C)Nc1nc([C@@H](C)O)cc2cnc(Nc3ccc(N4CC(C)NCC4=O)cn3)nc12 (stereo partly shown) [Compound 1032]
< 10,≥ 100,CC(C)Nc1nc([C@@H](C)O)cc2cnc(Nc3ccc(N4C(=O)CNCC4C)cn3)nc12 (stereo partly shown) [Compound 1033]
< 10,≥ 100,CCC(O)c1cc2cnc(Nc3ccc(N4CCNCC4)cn3)nc2c(NC(C)C)n1 (stereo not shown) [Compound 1034]
< 10,≥ 100,CCC(O)c1cc2cnc(Nc3ccc(N4CCNCC4)cn3)nc2c(NC(C)C)n1 (stereo not shown) [Compound 1035]
10 to 100,≥ 100,CCC(O)c1cc2cnc(Nc3ccc(N4CCNCC4=O)cn3)nc2c(NC(C)C)n1 (stereo not shown) [Compound 1037]
< 10,≥ 100,CC(C)Nc1nc([C@@H](C)O)cc2cnc(Nc3ccc(CN4CCCCC4)cn3)nc12 [Compound 1038]
< 10,≥ 100,CCCNc1nc([C@@H](C)O)cc2cnc(Nc3ccc(CN4CCC(CO)CC4)cn3)nc12 [Compound 1040]
< 10,≥ 100,CC(C)Nc1nc([C@@H](C)O)cc2cnc(Nc3ccc(CN4CCC(O)C4)cn3)nc12 (stereo partly shown) [Compound 1041]
10 to 100,≥ 100,CC(C)Nc1nc(C2CC(F)(F)C2)cc2cnc(Nc3ccc(N4CCNCC4=O)cn3)nc12 [Compound 1042]
< 10,≥ 100,C[C@@H](O)c1cc2cnc(Nc3ccc(N4CCNCC4=O)cn3)nc2c(NCC2CC2)n1 [Compound 1043]
10 to 100,≥ 100,C[C@@H](O)c1cc2cnc(Nc3ccc(N4CCNCC4=O)cn3)nc2c(NC2CC2)n1 [Compound 1044]
< 10,≥ 100,C[C@@H](O)c1cc2cnc(Nc3ccc(N4CCNCC4=O)cn3)nc2c(NC2CCC2)n1 [Compound 1045]
< 10,≥ 100,CCNc1nc([C@@H](C)O)cc2cnc(Nc3ccc(CN4CCN(CCO)CC4)c(C)n3)nc12 [Compound 1046]
< 10,≥ 100,CCCNc1nc([C@@H](C)O)cc2cnc(Nc3ccc(CN4CCN(CCO)CC4)c(C)n3)nc12 [Compound 1047]
< 10,≥ 100,Cc1nc(Nc2ncc3cc([C@@H](C)O)nc(NC4CCC4)c3n2)ccc1N1CCNCC1=O [Compound 1048]
< 10,≥ 100,CC(C)Nc1nc([C@@H](C)O)cc2cnc(Nc3cnc(CN4CCNCC4)cn3)nc12 [Compound 1049]

IC50 (CDK4/cyclin D3) [nM],IC50 (CDK2/cyclin A2) [nM],SMILES
< 10,≥ 100,CC(C)Nc1nc([C@@H](C)O)cc2cnc(Nc3cnc(CN4CCN(CCO)CC4)cn3)nc12 [Compound 1050]
< 10,≥ 100,C[C@@H](O)c1cc2cnc(Nc3ccc(N4CCNCC4)cn3)nc2c(NCC2CC2)n1 [Compound 1051]
10 to 100,≥ 100,CC(=O)c1cc2cnc(Nc3ccc(N4CCNCC4)cn3)nc2c(NCC2CC2)n1 [Compound 1052]
10 to 100,≥ 100,CCNc1nc([C@@H](C)O)cc2cnc(Nc3cc(C)c(CN4CCN(CCO)CC4)cn3)nc12 [Compound 1053]
10 to 100,≥ 100,CCCNc1nc([C@@H](C)O)cc2cnc(Nc3cc(C)c(CN4CCN(CCO)CC4)cn3)nc12 [Compound 1054]
10 to 100,≥ 100,Cc1cc(Nc2ncc3cc([C@@H](C)O)nc(NC(C)C)c3n2)ncc1CN1CCN(CCO)CC1 [Compound 1055]
10 to 100,≥ 100,COC(=O)N1CCN(c2ccc(Nc3ncc4cc([C@@H](C)OC)nc(N[C@H]5CCCOC5)c4n3)nn2)CC1 [Compound 1056]
< 10,≥ 100,CC(C)Nc1nc([C@@H](C)O)cc2cnc(Nc3ccc(CN4CCCC(O)C4)cn3)nc12 (stereo partly shown) [Compound 1057]
< 10,≥ 100,CC(C)Nc1nc([C@@H](C)O)cc2cnc(Nc3ccc(O[C@@H]4CCN(CCO)C4)cn3)nc12 [Compound 1058]
< 10,≥ 100,CCCNc1nc([C@@H](C)O)cc2cnc(Nc3ccc(O[C@@H]4CCN(CCO)C4)cn3)nc12 [Compound 1059]
< 10,≥ 100,CCNc1nc([C@@H](C)O)cc2cnc(Nc3ccc(CN4CCC(O)CC4)cn3)nc12 [Compound 1060]
< 10,≥ 100,CCCCNc1nc([C@@H](C)O)cc2cnc(Nc3ccc(CN4CCC(O)CC4)cn3)nc12 [Compound 1061]
< 10,≥ 100,C[C@@H](O)c1cc2cnc(Nc3ccc(CN4CCC(O)CC4)cn3)nc2c(NC2CCC2)n1 [Compound 1063]
< 10,≥ 100,C[C@@H](O)c1cc2cnc(Nc3ccc(CN4CCC(O)CC4)cn3)nc2c(N[C@H]2CC[C@H](O)CC2)n1 [Compound 1064]
< 10,≥ 100,C[C@@H](O)c1cc2cnc(Nc3ccc(CN4CCC(O)CC4)cn3)nc2c(NCC2CCOCC2)n1 [Compound 1065]
10 to 100,≥ 100,CCC(OC)c1cc2cnc(Nc3ccc(CN4CCNCC4)cn3)nc2c(NC(C)C)n1 (stereo not shown) [Compound 1066]
< 10,≥ 100,CCC(OC)c1cc2cnc(Nc3ccc(CN4CCNCC4)cn3)nc2c(NC(C)C)n1 (stereo not shown) [Compound 1067]
≥ 100,≥ 100,CCC(OC)c1cc2cnc(Nc3ccc(N4CCNCC4)nn3)nc2c(NC(C)C)n1 (stereo not shown) [Compound 1068]
10 to 100,≥ 100,CCC(OC)c1cc2cnc(Nc3ccc(N4CCNCC4)nn3)nc2c(NC(C)C)n1 (stereo not shown) [Compound 1069]

# From patent US10124004B2, “Pyrido[3,4-d]pyrimidine derivative and pharmaceutically acceptable salt thereof” (Teijin Pharma Limited, priority 2015, dated 2018)
